Converted amounts (≈) assume the structure as drawn.
Key:
HRP [1] = biological target: T1, HRP (Armoracia rusticana, UniProt P00433); assay: Triple immunohistochemical staining (Ki67, CD20, Her2) on Dako Autostainer; design: species or system horse radish; conditions: 0.5 mM conjugate, 50 mM imidazole:HCl pH 6.8, 0.003% hydrogen peroxide, 2.5% NMP, 5 min
T1 construct: purchased Dako K4061
T1 sequence (P00433 31-338): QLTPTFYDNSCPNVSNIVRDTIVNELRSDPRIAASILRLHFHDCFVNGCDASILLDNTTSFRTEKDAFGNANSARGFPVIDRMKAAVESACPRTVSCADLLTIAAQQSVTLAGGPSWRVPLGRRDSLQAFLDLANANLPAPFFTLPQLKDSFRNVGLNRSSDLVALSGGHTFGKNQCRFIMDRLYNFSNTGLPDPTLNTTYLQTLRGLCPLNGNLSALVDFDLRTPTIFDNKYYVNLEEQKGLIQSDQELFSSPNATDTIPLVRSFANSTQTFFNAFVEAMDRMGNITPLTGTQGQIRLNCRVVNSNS
Method: The exemplary triple staining method employed DAB in combination with Compounds 2 and 8, on a Dako Autostainer at room temperature. The steps of the method included: • 1. Blocking of endogenous peroxidase with peroxidase block (Dako S2023), 5 min. • 2. antiKi67 RTU antibody (Dako IR626), 20 mm • 3. Envision+dual Link HRP (Dako K4061), 20 min • 4. DAB (Dako K3468) 5 min. • 5. HRP quenching with peroxidase block (Dako S2023) with addition of 5 mg/mL alphacyano cinnamic acid, 5 min. • 6. antiCD20cy RTU antibody (Dako IR604), 20 min • 7. Envision+dual Link HRP (Dako K4061), 20 min • 8. 0.5 mM compound 2 in 50 mM imidazole: HCl pH 6.8, 0.003% hydrogen peroxide and 2.5% NMP, 5 min. • 9. HRP quenching with peroxidase block (Dako S2023) with addition of 5 mg/mL alphacyano cinnamic acid, 5 min. • 10. antiHer2 (Dako vial ST301 from HercepTest kit SK001) 20 min. • 11. Envision+dual Link HRP (Dako K4061), 20 min • 12. 0.5 mM compound 8 in 50 mM imidazole: HCl pH 6.8, 0.003% hydrogen peroxide and 2.5% NMP, 5 min. • 13. Counter stain with haematoxylin (Dako S3301)

HRP [2] = biological target: T1, HRP; assay: Fast CISH on human tissue slides, antiFITC-HRP; design: species or system horse radish; conditions: 1 mM in substrate buffer pH 6.8, 0.003% hydrogen peroxide, 5 min
[3] = UV-VIS absorbance maxima of chromogenic conjugates and mixtures; type: physicochemical
Method: “Spectrally narrow” refers to a chromogen having less that 50 nm broadness at its maximum absorbance at half peak height by UV-VIS spectroscopy, measured in +99% water at pH, 6-8 in 10 μM concentration. A “magenta chromogen” is a spectrally narrow chromogen with peak absorbance between 525 and 530 nm, measured in +99% water at pH, 6.0-8.0 in 10 μM concentration. A “greenish-yellow chromogen” is a chromogen with peak absorbance below 475 nm and less than 10% absorbance at 530 nm or above relative to the peak absorbance, measured in +99% water at pH, 6.0-8.0 in 10 μM concentration. A “yellow chromogen” is a chromogen with peak absorbance below 505 nm and less than 10% absorbance at 530 nm or above relative to the peak absorbance, measured in +99% water at pH, 6.0-8.0 in 10 μM concentration. A “cyan chromogen” is a chromogen having maximal absorbance above 615 nm and less than 10% relative absorbance at any wavelength between 530 and 400 nm relative to the peak absorbance, measured in +99% water at pH, 6.0-8.0 m 10 μM concentration. An “orange chromogen” is a “spectrally narrow” chromogen that has maximum absorbance between 495 and 520 nm, measured in +99% water at pH, 6-8 in 10 μM concentration. A “dichroic chromogen” is a chromogen that has at least two absorbance maxima, separated by a local minimum at least 50 nm wide and one further global minimum between 390 and 700 nm measured in water between pH 6 and 8.

HRP [4] = biological target: T1, HRP; assay: Tissue staining with mixtures of chromogens in chromogen buffer; design: species or system horse radish
HRP [5] = biological target: T1, HRP; assay: IHC staining of FFPE human tissues and Her2 control cell lines, Envision+ Dual link HRP visualization, DAB as reference; design: species or system horse radish; conditions: for colour of IHC stain / stain intensity and crispness compared with DAB: tested in 0.4 to 1 mM; for stain intensity and crispness compared with DAB: low and medium expression targets
[6] = Solubility in substrate buffer as function of percentage of NMP; type: physicochemical
Method: Only Compound 6 having a piperazine amide stands out by absorbing at 536 nm, around 5 nm above the esters comprising Compounds 2, 13, 14 and 15 all with abs max within 531-533 nm. […] Addition of NMP to the buffer in all cases increased chromogen solubility. See result table below of the solubility of 2, 13 and 15 as function of percentage of NMP as organic co solvent, 0% representing neat aqueous buffer 50 mM imidazole: HCl, pH 6.8, 3% and 10% said percent.

SMILES: CC/N=c1\cc2oc3cc(NCC)c(C)cc3c(-c3ccccc3C(=O)OCC(=O)NCCOCCOCCNC(=O)/C=C/c3ccc(O)cc3)c-2cc1C [Compound 2, Rhodamine 6G-L12-Cou]
- mutagenicity (Mutagenicity test): does not have significant mutagenicity
- stain produced in triple staining (HRP [1]): red Her2 membrane stain
- CISH signals (HRP [2]): large and distinct dots in both Tonsil tissues
- Absp nm (max) [3]: 531 nm
- intensity compared with DAB (HRP [4]; 0.6 mM in 15 mM imidazole pH 6.8, 4% NMP, 0.1% NP40-Nonidet, 0.01% Benzalkonium chloride, 0.03% hydrogen peroxide): matching DAB in intensity in the low range
- colour of stain of compound alone (HRP [4]; alone): changed from bright magenta at low intensities toward more full reds at higher intensities
- IHC staining performance of Rhodamine 6G derivatives with different 4-hydroxy cinnamic acid derivatives (HRP [5]; peroxidase substrate moiety varied): both strong and crisp stains with no background
- colour of IHC stain (HRP [5]): red stains
- stain intensity and crispness compared with DAB (HRP [5]): fully matched DAB in intensity and crispness
- staining in the high expression range (HRP [5]; very high expression targets, trained observers): performed better and more dynamically in the high expression range
- solubility ([6]; imidazole:HCl buffer (substrate buffer) with 3% NMP, aqueous buffer, 3% NMP in 50 mM imidazole:HCl pH 6.8): 1200 µM (≈ 899 µg/mL)
- solubility ([6]; imidazole:HCl buffer (substrate buffer) with 10% NMP, aqueous with cosolvent or surfactant or cyclodextrin, 10% NMP in 50 mM imidazole:HCl pH 6.8): 3600 µM (≈ 2700 µg/mL)
- solubility ([6]; imidazole:HCl buffer (substrate buffer), 0% NMP, neat aqueous buffer 50 mM imidazole:HCl pH 6.8): 1000 µM (≈ 749 µg/mL)

SMILES: CCN(CC)c1ccc2c(-c3ccccc3C(=O)N3CCN(CC(=O)NCCOCCOCCNC(=O)/C=C/c4ccc(O)cc4)CC3)c3ccc(=[N+](CC)CC)cc-3oc2c1 [Compound 8, RhodamineB-Pip-L12-Cou]
- stain produced in triple staining (HRP [1]): purple CD20 membrane stain
- Absp nm (max) [3]: 567 nm
- colour of IHC stain (HRP [5]): slightly bluish purple stains
- stain intensity and crispness compared with DAB (HRP [5]): more than matched DAB in intensity and crispness

Reference: patent US10526646B2, “Chromogenic peroxidase substrates” (Dako Denmark A/S, priority 2015, dated 2020)
